Results taken from paper PMC11642070, “OCTN1 (SLC22A4) as a Target of Heavy Metals: Its Possible Role in Microplastic Threats” (International Journal of Molecular Sciences, 2024).
Positions count from the first letter of the chain named.

What was measured:
[1] = according to ATSDR; ref https://www.atsdr.cdc.gov/toxprofiles; cited from earlier work
human OCTN1 = target: T1, human OCTN1 (Homo sapiens, UniProt Q9H015); format: biochemical; conditions: 60 min; for IC50: OCTN1 WT proteoliposomes, 0.1 mM [14C]-TEA, read-out: IC50 (µM) on [14C]-TEA uptake
T1 construct: made in house; host or cells: E. coli Rosetta(DE3)pLysS
T1 sequence (Q9H015 1-551): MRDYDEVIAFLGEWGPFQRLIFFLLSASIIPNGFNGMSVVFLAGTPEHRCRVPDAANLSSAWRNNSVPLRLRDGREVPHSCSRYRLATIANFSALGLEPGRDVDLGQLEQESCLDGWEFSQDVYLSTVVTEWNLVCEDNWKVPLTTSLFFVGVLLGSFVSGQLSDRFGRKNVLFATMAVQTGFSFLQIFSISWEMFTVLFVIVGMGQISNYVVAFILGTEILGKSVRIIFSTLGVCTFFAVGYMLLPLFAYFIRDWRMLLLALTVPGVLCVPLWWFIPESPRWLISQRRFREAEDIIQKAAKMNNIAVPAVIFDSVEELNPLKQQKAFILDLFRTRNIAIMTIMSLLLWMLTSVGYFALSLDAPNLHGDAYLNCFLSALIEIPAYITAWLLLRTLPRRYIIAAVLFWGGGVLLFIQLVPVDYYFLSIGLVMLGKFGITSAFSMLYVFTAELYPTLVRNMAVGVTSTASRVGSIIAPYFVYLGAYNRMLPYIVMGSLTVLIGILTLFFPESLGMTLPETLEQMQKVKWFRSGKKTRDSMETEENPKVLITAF
Procedure: (§1) After desalting, the protein was reconstituted in liposomes. The composition of the initial mixture used for reconstitution was as follows: 50 µg of protein (or desalt buffer in liposomes without the incorporated protein), 80 µL of 10% C12E8, 120 µL of 10% egg yolk phospholipids with 25% cholesterol in the form of sonicated liposomes, 16 mM ATP disodium salt, and 5 mM BisTris/HCl (pH 7.5) in a final volume of 700 µL. The purified OCTN1 (WT or C-less mutant) was inserted in the liposomal membrane using the batch-wise technique. This procedure used 0.5 g of Amberlite XAD-4 to remove the detergent from mixed micelles consisting of proteins, phospholipids and detergent at 23 °C for 40 min at 1200 rpm, as previously described.
(§2) Proteoliposomes and liposomes (600 μL) were applied onto a Sephadex G-75 (Merck Life Science, Milan, Italy) column (0.7 cm diameter × 15 cm height) pre-equilibrated with 5 mM BIS-Tris/HCl (pH 8.0) and eluted with 600 μL of the same buffer. Samples of 100 μL each were prepared from the 600 μL pool. The transport was initiated by [^14C]-TEA or [^3H]-Ach at the concentration of 0.1 mM to the proteoliposome samples and stopped after 60 min according to the stop-inhibitor method. In the blank samples, the inhibitor (1 mM Hemicholinium-3) was added at time zero. After the transport time, each sample was applied onto a Sephadex G-75 column (0.6 cm diameter × 8 cm height) and pre-equilibrated with 50 mM NaCl to remove the radioactivity not taken up. Proteoliposomes were eluted with 50 mM NaCl (1 mL), added to 3 mL Pico-Fluor Plus, vortexed, and counted. The radioactivity in the blank samples was used to subtract background radioactivity from the protein-associated one.
All experimental data were derived from the mean of three independent experiments, and results were expressed as means ± SD. IC50 values were derived from data fitting the IC50 equation using Grafit v 5.0.13 software (Erithacus Software (v 5.0.13), East Grinstead, UK).

Cys-less OCTN1 = target: T2, Cys-less OCTN1 (Homo sapiens, UniProt Q9H015, C113A/C136A/C236A/C270A/C374A/C50A/C81A); experiment: [14C]-TEA uptake by Cys-less OCTN1 mutant reconstituted in proteoliposomes; format: biochemical; conditions: 100 µM metal (250 µM CrCl2), 0.1 mM [14C]-TEA, 60 min
T2 construct: made in house; host or cells: E. coli Rosetta(DE3)pLysS
T2 sequence (Q9H015 1-551 C50A/C81A/C113A/C136A/C236A/C270A/C374A): T1 sequence (Q9H015 1-551) with C50A, C81A, C113A, C136A, C236A, C270A, C374A
Procedure: The over-expression of OCTN1 wild type (WT) and C-less mutant proteins, as previously described in [17], has been performed in E. coli Rosetta(DE3)pLysS, as described in [60, 61].
as §1, with “This procedure used 0.5 g of Amberlite XAD-4 to remove the detergent from mixed micelles consisting of proteins, phospholipids and detergent at 23 °C for 40 min at 1200 rpm, as previously described.” left out
as §2, with “Samples of 100 μL each were prepared from the 600 μL pool. The transport was initiated by [^14C]-TEA or [^3H]-Ach at the concentration of 0.1 mM to the proteoliposome samples and stopped after 60 min according to the stop-inhibitor method. In the blank samples, the inhibitor (1 mM Hemicholinium-3) was added at time zero.” left out

SMILES | Level of Toxicity [1] | IC50 (human OCTN1) | other results
[Cd] [Cadmium] | +++ | – | –
[Cl][Cd][Cl] [CdCl2, Cadmium chloride] | – | 56 ± 4 µM | –
[Cr] [Chromium] | +++ | – | –
[Cl][Cr][Cl] [CrCl2, Chromium (II) chloride] | – | 170 ± 15 µM | Effect of DTE and cysteine on the inhibition of [14C]-TEA transport by heavy metals (human OCTN1; 100 µM metal (250 µM CrCl2), 5 mM DTE or Cys): only exception; Inhibition of [14C]-TEA transport by Cys-less OCTN1 (Cys-less OCTN1): only exception
[Cl][Hg][Cl] [HgCl2, Mercury (II) chloride] | – | 121 ± 7 µM | –
O=[N+]([O-])[O-].O=[N+]([O-])[O-].[Pb+2] [Pb(NO3)2, Lead nitrate] | – | 90 ± 19 µM | –
[Zn] [Zinc] | + | – | –
[Cl-].[Cl-].[Zn+2] [ZnCl2, Zinc chloride] | – | 57 ± 17 µM | –
